Here are results for one compound from patent US9345677B2, “Compositions, methods and kits relating to HER-2 cleavage” (Incyte Corporation, priority 2003, dated 2016).

Assay [1] concerns the target T1, ADAM10 (Homo sapiens, UniProt O14672).
T1 construct: purchased R&D Systems 936-AD
T1 sequence (O14672 214-748): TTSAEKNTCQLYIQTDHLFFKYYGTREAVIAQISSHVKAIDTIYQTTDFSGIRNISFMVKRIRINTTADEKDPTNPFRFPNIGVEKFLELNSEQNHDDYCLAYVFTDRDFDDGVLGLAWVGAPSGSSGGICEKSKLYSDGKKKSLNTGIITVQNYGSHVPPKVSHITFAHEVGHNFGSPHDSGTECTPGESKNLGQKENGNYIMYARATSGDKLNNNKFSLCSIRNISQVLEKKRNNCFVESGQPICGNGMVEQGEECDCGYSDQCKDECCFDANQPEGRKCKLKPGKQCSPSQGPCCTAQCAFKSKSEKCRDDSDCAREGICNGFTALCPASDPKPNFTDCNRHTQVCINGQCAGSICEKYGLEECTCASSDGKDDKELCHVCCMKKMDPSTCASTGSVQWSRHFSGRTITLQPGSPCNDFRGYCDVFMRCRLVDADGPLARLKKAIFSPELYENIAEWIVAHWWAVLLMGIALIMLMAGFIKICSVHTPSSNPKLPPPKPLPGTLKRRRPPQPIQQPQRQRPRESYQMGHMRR
Description: ADAM10 fluorogenic peptide biochemical assay. The method, then:
5 mM Compound stock was prepared in DMSO. Compound plate was prepared by 2-fold dilution for 11-point curve, with highest concentration of 500 μM. 1 μL of compound in DMSO was transferred from compound plate to the assay plate. Enzyme solution was prepared in assay buffer with a concentration of 100 ng/50 μL. Substrate ((7-methoxycoumarin-4-yl)-acetyl-Pro-Leu-Ala-Gln-Ala-Val-(3-[2,4-dinitrophenyl]-L-2,3-diaminopropionyl)-Arg-Ser-Ser-Ser-Arg-NH2 (SEQ ID NO:48)) solution was prepared in assay buffer with a concentration of 20 μM. 50 μL of enzyme solution was added to the assay plate. The assay plate was incubated for 5 minutes. 50 μL of substrate solution was then added to the assay plate. The plate was protected from light and incubated at 37° C. for 4 hours. The reaction was stopped by adding 10 μL of 500 mM EDTA solution. The plate was read on a plate reader with excitation of 320 nm and emission of 405 nm.
Source of enzymes for biochemical assays: Except for ADAM17 and MT1-MMP, all recombinant human MMPs and ADAMs were obtained from R&D Systems (Minneapolis, Minn.). […]
In general, 5 mM compound stock was prepared in DMSO. […] The plate was read on a plate reader with excitation of 320 nm and emission of 405 nm. Percentage of inhibition was calculated for each concentration and IC50 value was generated from curve fitting. […]

For assay [2], the system named is BT474 cells. Kind of assay: Cell proliferation assay (cell counting, BrdU incorporation). In kind it is cell-based, human. Conditions: Her-2 overexpressing BT474 cells.
Description: Proliferation assays were routinely performed with two protocols: cell counting and BrdU incorporation assay. For cell counting, cells (1×10^5) were seeded in each well of 12 well plates and cultured overnight. Then, cells were treated for 6 days with drugs and compounds as indicated in individual experiments. Culture media were replaced with fresh media containing the same concentrations of drugs and compounds after the first 3 days of treatment. Viable cells were counted with hemacytometers immediately after trypan blue staining.
The BrdU incorporation assay was performed using a colorimetric Cell Proliferation ELISA kit per manufacturer's instruction (#1647229, Roche Molecular Biochemicals), measuring DNA synthesis in proliferating cells. Briefly, cells (5−10×10^3) were seeded in each well of 96 well plates and cultured overnight. […] Finally, 100 μl/well of substrate solution was added and the results were obtained using a microplate reader (Spectra Max PLUS, Molecular Devices) during color development. Multiple readings at various time points were obtained and results in the linear range of the assay were obtained. […]
After varying periods of cell culture (2-6 days), the cell cultures were harvested and cell growth was assessed by cell count and BRdU incorporation using standard protocols.

A word on the IC50: it is the concentration at which inhibition is half-maximal. Low values mean greater potency in that assay, high ones weaker potency in that assay.

Turning to `Cc1cc([N+](=O)[O-])ccc1N1CCN(C(=O)[C@@H]2[C@@H](C(=O)NO)CC3(CC3)CN2C)CC1` [Compound 5, (6S,7S)-N-hydroxy-5-methyl-6-{[4-(2-methyl-4-nitrophenyl)piperazin-1-yl]-carbonyl}-5-azaspiro[2.5]octane-7-carboxamide], in assay [1], half-maximal inhibition (IC50) required 98 nM. Moreover, the “effect on antiproliferative activity of a suboptimal dose of Herceptin” value in assay [2] is recorded as “synergistically enhances”.
